Results as given in PMC3251870 (British Journal of Cancer, 2011).
Like-named read-outs stand apart in the source and are kept apart here.

Legend:
[1] = molecular target: purified recombinant HDAC1 (Homo sapiens, UniProt Q13547); conditions: 50 nM
Source text: (§3) Cell extracts or purified recombinant HDAC enzymes were used in standard HDAC activity assays using Millipore's HDAC Fluorometric Assay Kit (Millipore, Billerica, MA, USA), according to the manufacturer's protocol. A FluoroStar Omega plate reader (BMG Biosciences) was used for fluorescent detection. Purified recombinant active HDACs 1, 5 and 8 were purchased from Millipore/Upstate.

H2085 cells = test: MTS cell viability, H2085; format: cell-based, human; conditions: H2085 NSCLC, 4 days
Protocol: (§1) All human cancer cell lines were maintained in RPMI media supplemented with 5% (lung and breast cancer cells) or 10% (melanoma cells) fetal bovine serum. […] Human mammary epithelial cells immortalised with telomerase were maintained in complete MEGM media from Cambrex (East Rutherford, NJ, USA).
(§2) Absorbance at 490 and 650 nm (reference wavelength) was measured by a Spectra Max (Molecular Devices, Sunnyvale, CA, USA) or a FlouroStar Omega (BMG Biosciences, Ortenberg, Germany) plate reader. Data were normalised to the untreated controls (100% viability). Each cell line was tested in 1–5 independent assays, each containing 4–8 replicates. IC50 values were calculated using DIVISA, a high-throughput software, developed in-house (manuscript in preparation), for storing and analysing drug sensitivity assays. Dose–response curves were plotted using a non-linear regression model and IC50s were determined from the fitted curves.

H1437 cells [2] = test: MTS cell viability, H1437; format: cell-based, human; conditions: H1437 NSCLC, MTS, 4 days
Protocol: as §1, §2

H820 cells = test: MTS cell viability, H820; format: cell-based, human; conditions: H820 NSCLC, 4 days
Protocol: as §1, §2

[3] = test system: OCM1 uveal melanoma cells; test: MTS cell viability, OCM1; format: cell-based, human; conditions: 4 days
Protocol: as §1, §2

[4] = test system: total HDAC activity, C127 cells; test: Total HDAC activity in lysates from drug-treated cells; format: cell-based; conditions: 25 nM
Source text: HDAC2 was purified as described below.

H1355 cells = test: MTS cell viability, H1355; format: cell-based, human; conditions: H1355 NSCLC, 4 days
Protocol: as §1, §2

[5] = molecular target: purified recombinant HDAC8 (Homo sapiens, UniProt Q9BY41)
Chain of purified recombinant HDAC8 (Q9BY41 whole entry, species assumed): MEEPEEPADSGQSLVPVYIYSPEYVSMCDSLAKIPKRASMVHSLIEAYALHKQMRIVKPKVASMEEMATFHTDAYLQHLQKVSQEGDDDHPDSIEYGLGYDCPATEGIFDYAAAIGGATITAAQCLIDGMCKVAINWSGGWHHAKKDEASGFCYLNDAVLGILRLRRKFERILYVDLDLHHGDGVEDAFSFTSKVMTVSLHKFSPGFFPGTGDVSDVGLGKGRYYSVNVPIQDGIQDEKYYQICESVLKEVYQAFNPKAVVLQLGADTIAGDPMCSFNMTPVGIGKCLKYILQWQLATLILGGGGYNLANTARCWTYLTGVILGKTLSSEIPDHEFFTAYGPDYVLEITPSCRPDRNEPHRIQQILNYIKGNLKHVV
Source text: as §3

UACC62 melanoma cells = test: MTS cell viability, UACC62; format: cell-based, human; conditions: 4 days
Protocol: as §1, §2

[6] = test system: 348T immortalised normal human mammary epithelial cells; test: MTS cell viability, 348T; format: cell-based; conditions: 4 days
Protocol: as §1, §2

LOXIMVI melanoma cells = test: MTS cell viability, LOXIMVI; format: cell-based, human; conditions: LOXIMVI melanoma, 4 days
Protocol: as §1, §2

H2009 cells = test: MTS cell viability, H2009; format: cell-based, human; conditions: H2009 NSCLC, 4 days
Protocol: as §1, §2

[7] = test system: HBEC3KT human bronchial epithelial cells; test: MTS cell viability, HBEC3KT; format: cell-based; conditions: 4 days
Protocol: as §1, §2

MALME3M melanoma cells = test: MTS cell viability, MALME3M; format: cell-based, human; conditions: 4 days
Protocol: as §1, §2

HCC1500 cells = test: MTS cell viability, HCC1500; format: cell-based, human; conditions: HCC1500 breast cancer line, 4 days
Protocol: as §1, §2

H1993 cells = test: MTS cell viability, H1993; format: cell-based, human; conditions: H1993 NSCLC, MTS, 4 days
Protocol: as §1, §2

H1437 cells [8] = test: ATP-based cell viability, H1437 vs H1299; parameters: species or system human; conditions: cell viability by ATP measurements
Source text: Supplementary Material Chang et al
This supplementary material contains:
-Supplementary Figure Legends
-Supplementary Figures 1- 4
Please see separate excel file for Supplementary Table 1.
Supplementary Figure Legends
Supplementary Figure 1: Expanded panel of cell lines showing distinct relative sensitivities to
TSA vs. depsipeptide. Lung cancer cell lines not depicted in the main Figure 1A are shown in A)
and an expanded set of breast cancer cells and HMES and melanomacells and melanocytes in
Supplementary Figure 2: Differential response to HDAC inhibitors is a general phenomenon. A)
H1299 also by ATP measurements.
Supplementary Figure 3: HDAC ex pression levels may contribute to drug sensitivity. A)
B) HDAC 2 levels are similar in the cell line
Supplementary Figure 4: Validation of microarray gene expression differences in the
H1993/H2073 cell line pair confirmed overexpression of glutathione metabolism genes in H2073
(shown in A) and downregulation of chromatin interacting proteins (B).

M14 melanoma cells = test: MTS cell viability, M14; format: cell-based, human; conditions: 4 days
Protocol: as §1, §2

recombinant murine HDAC2 = molecular target: T1, recombinant murine HDAC2 (Mus musculus, UniProt P70288); test: HDAC fluorometric activity assay, purified HDAC2; format: biochemical; conditions: 400 nM
T1 construct: The murine HDAC2 open reading frame was amplified by PCR from the plasmid pME18S-HDAC2; FLAG (DYKDDDDK) (C); made in house; host or cells: Sf9 insect cells (baculovirus)
T1 sequence (P70288 whole entry): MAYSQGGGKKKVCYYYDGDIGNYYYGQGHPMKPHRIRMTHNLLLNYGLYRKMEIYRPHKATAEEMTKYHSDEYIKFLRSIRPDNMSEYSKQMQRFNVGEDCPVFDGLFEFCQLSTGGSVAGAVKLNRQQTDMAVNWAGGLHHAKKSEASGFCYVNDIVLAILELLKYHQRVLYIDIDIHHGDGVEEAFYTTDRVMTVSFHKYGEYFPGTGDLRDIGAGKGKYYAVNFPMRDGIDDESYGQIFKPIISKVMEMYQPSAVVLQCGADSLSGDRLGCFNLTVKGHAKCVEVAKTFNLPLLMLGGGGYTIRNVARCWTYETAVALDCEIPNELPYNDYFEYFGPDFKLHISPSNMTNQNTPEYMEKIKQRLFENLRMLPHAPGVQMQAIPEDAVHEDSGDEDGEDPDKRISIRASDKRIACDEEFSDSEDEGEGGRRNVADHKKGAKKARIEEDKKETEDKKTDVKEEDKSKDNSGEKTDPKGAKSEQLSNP
Source text: Cell extracts or purified recombinant HDAC enzymes were used in standard HDAC activity assays using Millipore's HDAC Fluorometric Assay Kit (Millipore, Billerica, MA, USA), according to the manufacturer's protocol. A FluoroStar Omega plate reader (BMG Biosciences) was used for fluorescent detection. […] HDAC2 was purified as described below.

[9] = test system: acetylated tubulin in H358 cells; test: Western blot, acetylated tubulin; format: cell-based, human; conditions: 200 nM, 24 h
Protocol: Exponentially growing cells were treated with the appropriate compounds and harvested 4 or 24 h later in a standard nuclear lysis buffer and whole cell lysates were quantified. Equal amounts of total protein were loaded onto 4–12% Bis-Tris SDS gels and subjected to electrophoresis. After transferring onto nitrocellulose membranes, blots were probed for acetylated tubulin (Sigma, St Louis, MO, USA; T6793), acetylated histone 3 (Millipore/Upstate #06-599), acetylated histone 4 (Millipore/Upstate #07-329) or trimethylated histone 3 at lysine 9 (Millipore/Upstate #07-523). Actin (Santa Cruz, Santa Cruz, CA, USA; #1616) and HDAC1 (Affinity Bioreagents, Rockford, IL, USA; #PA1-860) were probed as loading controls. Quantification of bands in films was performed using two independent methods, which yielded similar results, Image J (NIH public software) and Quantity one (Bio-Rad, Hercules, CA, USA). The average of the two methods±s.e.m. is shown as specified in figure legends. For the MDR western analysis, a primary antibody against P-glycoprotein from Calbiochem (Darmstadt, Germany) was used according to the manufacturer's recommendations and HSP90 (Santa Cruz) was used as a loading control.

Chain of purified recombinant HDAC1 (Q13547 whole entry, species assumed): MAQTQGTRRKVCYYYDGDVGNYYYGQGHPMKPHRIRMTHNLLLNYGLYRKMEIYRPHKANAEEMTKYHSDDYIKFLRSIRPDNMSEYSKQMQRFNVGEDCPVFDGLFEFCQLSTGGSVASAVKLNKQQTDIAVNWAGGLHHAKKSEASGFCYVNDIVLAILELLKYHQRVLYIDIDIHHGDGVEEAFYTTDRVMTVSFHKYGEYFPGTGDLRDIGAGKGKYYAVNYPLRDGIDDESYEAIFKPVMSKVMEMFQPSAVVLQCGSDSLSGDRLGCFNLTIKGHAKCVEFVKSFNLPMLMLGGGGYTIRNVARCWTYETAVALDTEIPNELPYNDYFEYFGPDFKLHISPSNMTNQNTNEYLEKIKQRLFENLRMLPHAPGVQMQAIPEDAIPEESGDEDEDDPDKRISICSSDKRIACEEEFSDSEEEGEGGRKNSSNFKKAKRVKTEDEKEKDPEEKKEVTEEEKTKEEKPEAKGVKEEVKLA

Compound	IC50 (H2085 cells) [nM]	IC50 (H1437 cells [2]) [nM]	IC50 (H820 cells) [nM]	IC50 [3] [nM]	IC50 (H1355 cells) [nM]	IC50 (UACC62 melanoma cells) [nM]	IC50 [6] [nM]	IC50 (LOXIMVI melanoma cells) [nM]	IC50 (H2009 cells) [nM]	IC50 [7] [nM]	IC50 (MALME3M melanoma cells) [nM]	IC50 (HCC1500 cells) [nM]	IC50 (H1993 cells) [nM]	IC50 (M14 melanoma cells) [nM]	other results
C/C=C1\NC(=O)[C@H]2CSSCC/C=C/[C@H](CC(=O)N[C@H](C(C)C)C(=O)N2)OC(=O)[C@H](C(C)C)NC1=O [Depsipeptide, depsipeptide]	6.9	0.5	4	5.5	1.8	0.9	1.3	1.2	0.9	1	0.7	1.5	1.2	2.4	inhibition of HDAC1 activity [1]: no inhibition; total HDAC activity in lysates made from treated cells vs DMSO-treated cells [4]: strong inhibition; inhibition of HDAC8 activity ([5]; 50 nM): no effect; inhibition of HDAC8 activity ([5]; 0.5 μM): no effect; sensitivity of H1437 compared to H1299 (H1437 cells [8]): greater sensitivity
CC(/C=C/C(=O)NO)=C\[C@@H](C)C(=O)c1ccc(N(C)C)cc1 [TSA, trichostatin A]	390	191	55	188	107	238	81	57	38.3	318	240	29	93.5	98	inhibition of HDAC2 activity (recombinant murine HDAC2): fully inhibited; acetylated tubulin levels [9]: increase
